According to patent publication US11259516B2, “Method and apparatus for capsular delivery to plants” (priority 2017, dated 2022):

What was measured:
[1] = system: Ailanthus altissima (Tree-of-heaven); design: key: X indicates that the given herbicide is suitable for controlling the given weed; settings: cited from earlier work
[2] = system: Cascabela thevetia (Yellow oleander); design: key: X indicates that the given herbicide is suitable for controlling the given weed; settings: cited from earlier work
[3] = system: Cryptostegia grandiflora (Rubber vine); design: key: X indicates that the given herbicide is suitable for controlling the given weed; settings: cited from earlier work
[4] = system: Harungana madagarcariensis (Harungana); design: key: X indicates that the given herbicide is suitable for controlling the given weed; settings: cited from earlier work
Phoenix spp (Palms) = system: Phoenix spp (Palms); design: key: X indicates that the given herbicide is suitable for controlling the given weed; settings: cited from earlier work
[5] = system: Schinus terebinthifolius (Broad-leafed pepper tree); design: key: X indicates that the given herbicide is suitable for controlling the given weed; settings: cited from earlier work
[6] = system: Tamarix aphylla (Athel pine); design: key: X indicates that the given herbicide is suitable for controlling the given weed; settings: cited from earlier work
Acacia spp (Wattles) = system: Acacia spp (Wattles); design: key: X indicates that the given herbicide is suitable for controlling the given weed; settings: cited from earlier work
[7] = system: Azadirachta indica (Neem); design: key: X indicates that the given herbicide is suitable for controlling the given weed; settings: cited from earlier work
[8] = system: Chamaecytisus palmensis (Tree lucerne); design: key: X indicates that the given herbicide is suitable for controlling the given weed; settings: cited from earlier work
Lantana camara (Lantana) = system: Lantana camara (Lantana); design: key: X indicates that the given herbicide is suitable for controlling the given weed; settings: cited from earlier work
[9] = system: Leucaena leucocephala (Leucaena); design: key: X indicates that the given herbicide is suitable for controlling the given weed; settings: cited from earlier work
[10] = system: Leptospermum spp. (Tea trees); design: key: X indicates that the given herbicide is suitable for controlling the given weed; settings: cited from earlier work
[11] = system: Ligustrum lucidum (Broad leaf privet); design: key: X indicates that the given herbicide is suitable for controlling the given weed; settings: cited from earlier work
[12] = system: Lycium ferocissium (African boxthom); design: key: X indicates that the given herbicide is suitable for controlling the given weed; settings: cited from earlier work
[13] = system: Rubus anglocandicans (Blackberry); design: key: X indicates that the given herbicide is suitable for controlling the given weed; settings: cited from earlier work
Salix species (Willows) = system: Salix species (Willows); design: key: X indicates that the given herbicide is suitable for controlling the given weed; settings: cited from earlier work
[14] = system: Senegalia catechu (Cutch tree); design: key: X indicates that the given herbicide is suitable for controlling the given weed; settings: cited from earlier work
[15] = system: Solanum mauritianum (Wild tobacco tree); design: key: X indicates that the given herbicide is suitable for controlling the given weed; settings: cited from earlier work
[16] = system: Ziziphus mauritania (Chinee apple); design: key: X indicates that the given herbicide is suitable for controlling the given weed; settings: cited from earlier work
Acer negudo (Box elder) = system: Acer negudo (Box elder); design: key: X indicates that the given herbicide is suitable for controlling the given weed; settings: cited from earlier work
Angophora spp (Apple) = system: Angophora spp (Apple); design: key: X indicates that the given herbicide is suitable for controlling the given weed; settings: cited from earlier work
[17] = system: Banksia spp (Bottlebrush); design: key: X indicates that the given herbicide is suitable for controlling the given weed; settings: cited from earlier work
[18] = system: Bursaria spinosa (Australian blackthorn); design: key: X indicates that the given herbicide is suitable for controlling the given weed; settings: cited from earlier work
[19] = system: Cestrum parqui (Green cestrum); design: key: X indicates that the given herbicide is suitable for controlling the given weed; settings: cited from earlier work
[20] = system: Cinnamonum camphora (Camphor laurel); design: key: X indicates that the given herbicide is suitable for controlling the given weed; settings: cited from earlier work
[21] = system: Crataegus sinaica (Azarola); design: key: X indicates that the given herbicide is suitable for controlling the given weed; settings: cited from earlier work
[22] = system: Eucalyptus spp (Box, Eucalypt); design: key: X indicates that the given herbicide is suitable for controlling the given weed; settings: cited from earlier work
[23] = system: Ligustrum sinense (Chinese privet); design: key: X indicates that the given herbicide is suitable for controlling the given weed; settings: cited from earlier work
[24] = system: Olea europea sbsp africana (African olive); design: key: X indicates that the given herbicide is suitable for controlling the given weed; settings: cited from earlier work
[25] = system: Olea europea sbsp europa (European olive); design: key: X indicates that the given herbicide is suitable for controlling the given weed; settings: cited from earlier work
Prosopis spp (Mesquite) = system: Prosopis spp (Mesquite); design: key: X indicates that the given herbicide is suitable for controlling the given weed; settings: cited from earlier work
[26] = system: Ricinus communis (Castor oil plant); design: key: X indicates that the given herbicide is suitable for controlling the given weed; settings: in vivo; cited from earlier work
[27] = system: Vachellia nilotica (Prickly acacia); design: key: X indicates that the given herbicide is suitable for controlling the given weed; settings: cited from earlier work
[28] = system: western white gum (Eucalyptus argophloia); test: Example 2: glyphosate and hexazinone capsules, thinning trial in western white gum plantation
Method: The trial for this example was established at the HQP plantation near Jandowae on 6 Feb. 2018. The trees were planted in rows 4 m apart at 1.5 m spacing. Trees were 6-10 m tall. Trees to be maintained were marked and the other trees were treated.
Four treatments were used, with capsules as follows:
The capsules used were HPMC Size 0 Natural TR.V700 colour cap and body Vcaps (Suzhou Capsugel® Ltd, China). Capsules were hand packed using a Capsugel Profiller apparatus (https://www.capsugel.com/biopharmaceutical-products/profiller). An embodiment of apparatus 10 adapted to include handle 2201 (FIG. 17) was used to drill a hole into the stem, insert the herbicide capsule and seal with a wooden plug.
Herbicide capsules were applied to approximately 10 trees for each of the treatments. The number of capsules applied to each tree was independent of tree circumference which was measured at chest height. The tree circumferences range was from 20 to 34 centimetres. At 4 weeks, a small sample of trees were cut down with a chainsaw and cross-sections of stems containing the sites of insertion of the herbicide capsules removed. These stem pieces were returned to the laboratory and split open longitudinally through the insertion point. Tree health was assessed at 11 weeks (24 Apr. 2018) on a 0-4 scale with 0 being dead and 4 being healthy. Observations were made for evidence of flashback in untreated trees.

[29] = system: Parkinsonia aculeata (Parkinsonia); design: key: X indicates that the given herbicide is suitable for controlling the given weed; settings: cited from earlier work
[30] = system: Atalaya hemiglauca (Whitewood); design: key: X indicates that the given herbicide is suitable for controlling the given weed; settings: cited from earlier work
[31] = system: Calotropis procera (Rubber bush); design: key: X indicates that the given herbicide is suitable for controlling the given weed; settings: cited from earlier work
[32] = system: Eremophila mitchellii (False sandalwood); design: key: X indicates that the given herbicide is suitable for controlling the given weed; settings: cited from earlier work
Melalauca spp = system: Melalauca spp; design: key: X indicates that the given herbicide is suitable for controlling the given weed; settings: cited from earlier work
Mimosa pigra (Mimosa) = system: Mimosa pigra (Mimosa); design: key: X indicates that the given herbicide is suitable for controlling the given weed; settings: cited from earlier work
[33] = system: Planchonia careya (Cocky apple); design: key: X indicates that the given herbicide is suitable for controlling the given weed; settings: cited from earlier work
[34] = system: Vachellia famesiana (Mimosa bush); design: key: X indicates that the given herbicide is suitable for controlling the given weed; settings: cited from earlier work
[35] = system: Caesalpinia decapetala (Thorny poinciana); design: key: X indicates that the given herbicide is suitable for controlling the given weed; settings: cited from earlier work
[36] = system: Jatropha gossypiifolia (Bellyache bush); design: key: X indicates that the given herbicide is suitable for controlling the given weed; settings: cited from earlier work
[37] = system: Senna pendula (Winter senna); design: key: X indicates that the given herbicide is suitable for controlling the given weed; settings: cited from earlier work

CC(C)C1(C)N=C(c2ncccc2C(=O)O)NC1=O (stereo not drawn) [Imazapyr]
X: suitability of herbicide for control of weed [1] | suitability of herbicide for control of weed [2] | suitability of herbicide for control of weed [3] | suitability of herbicide for control of weed [4] | suitability of herbicide for control of weed (Phoenix spp (Palms)) | suitability of herbicide for control of weed [5] | suitability of herbicide for control of weed [6]

Nc1c(Cl)c(Cl)nc(C(=O)O)c1Cl [Picloram]
X: suitability of herbicide for control of weed (Acacia spp (Wattles)) | suitability of herbicide for control of weed [7] | suitability of herbicide for control of weed [8] | suitability of herbicide for control of weed (Lantana camara (Lantana)) | suitability of herbicide for control of weed [9] | suitability of herbicide for control of weed [10] | suitability of herbicide for control of weed [11] | suitability of herbicide for control of weed [12] | suitability of herbicide for control of weed [13] | suitability of herbicide for control of weed (Salix species (Willows)) | suitability of herbicide for control of weed [5] | suitability of herbicide for control of weed [14] | suitability of herbicide for control of weed [15] | suitability of herbicide for control of weed [16]

O=C(O)COc1nc(Cl)c(Cl)cc1Cl [Triclopyr]
X: suitability of herbicide for control of weed (Acacia spp (Wattles)) | suitability of herbicide for control of weed (Acer negudo (Box elder)) | suitability of herbicide for control of weed [1] | suitability of herbicide for control of weed (Angophora spp (Apple)) | suitability of herbicide for control of weed [7] | suitability of herbicide for control of weed [17] | suitability of herbicide for control of weed [18] | suitability of herbicide for control of weed [19] | suitability of herbicide for control of weed [20] | suitability of herbicide for control of weed [21] | suitability of herbicide for control of weed [3] | suitability of herbicide for control of weed [22] | suitability of herbicide for control of weed (Lantana camara (Lantana)) | suitability of herbicide for control of weed [11] | suitability of herbicide for control of weed [23] | suitability of herbicide for control of weed [12] | suitability of herbicide for control of weed [24] | suitability of herbicide for control of weed [25] | suitability of herbicide for control of weed (Phoenix spp (Palms)) | suitability of herbicide for control of weed (Prosopis spp (Mesquite)) | suitability of herbicide for control of weed [26] | suitability of herbicide for control of weed [13] | suitability of herbicide for control of weed [5] | suitability of herbicide for control of weed [14] | suitability of herbicide for control of weed [6] | suitability of herbicide for control of weed [27] | suitability of herbicide for control of weed [16]

CN(C)c1nc(=O)n(C2CCCCC2)c(=O)n1C [Hexazinone]
no flashback was observed: flashback in the trees marked for retention ([28]; in vivo)
X: suitability of herbicide for control of weed (Acacia spp (Wattles)) | suitability of herbicide for control of weed [1] | suitability of herbicide for control of weed [3] | suitability of herbicide for control of weed [22] | suitability of herbicide for control of weed [12] | suitability of herbicide for control of weed [29] | suitability of herbicide for control of weed [27]
obvious deterioration in plant health: plant health (yellowing of the foliage) ([28]; Eucalyptus argophloia, 11 weeks, 1 or 2 capsules per tree)
only a small percentage of trees killed: trees died / killed (health rating 0-4 scale, 0 dead) ([28]; Eucalyptus argophloia, 11 weeks post treatment, 1 or 2 capsules per tree)

CN(C)C(=O)Nc1ccc(Cl)c(Cl)c1 [Diuron]
X: suitability of herbicide for control of weed [27]

CNC(=O)N(C)c1nnc(C(C)(C)C)s1 [Tebuthiuron]
X: suitability of herbicide for control of weed (Acacia spp (Wattles)) | suitability of herbicide for control of weed [30] | suitability of herbicide for control of weed [31] | suitability of herbicide for control of weed [3] | suitability of herbicide for control of weed [32] | suitability of herbicide for control of weed (Lantana camara (Lantana)) | suitability of herbicide for control of weed [12] | suitability of herbicide for control of weed (Melalauca spp) | suitability of herbicide for control of weed (Mimosa pigra (Mimosa)) | suitability of herbicide for control of weed [29] | suitability of herbicide for control of weed [33] | suitability of herbicide for control of weed [34] | suitability of herbicide for control of weed [27]

COc1c(Cl)ccc(Cl)c1C(=O)O [Dicamba]
X: suitability of herbicide for control of weed [3] | suitability of herbicide for control of weed (Mimosa pigra (Mimosa))

COC(=O)c1ccccc1S(=O)(=O)NC(=O)Nc1nc(C)nc(OC)n1 [Metsulfuron-methyl]
X: suitability of herbicide for control of weed (Acacia spp (Wattles)) | suitability of herbicide for control of weed [1] | suitability of herbicide for control of weed (Angophora spp (Apple)) | suitability of herbicide for control of weed [18] | suitability of herbicide for control of weed [35] | suitability of herbicide for control of weed [8] | suitability of herbicide for control of weed [3] | suitability of herbicide for control of weed [22] | suitability of herbicide for control of weed [4] | suitability of herbicide for control of weed [36] | suitability of herbicide for control of weed (Lantana camara (Lantana)) | suitability of herbicide for control of weed [11] | suitability of herbicide for control of weed [23] | suitability of herbicide for control of weed (Mimosa pigra (Mimosa)) | suitability of herbicide for control of weed [13] | suitability of herbicide for control of weed [37]
